For the experiment, the target named is T1, HCV protease (Hepatitis C virus genotype 1a, UniProt P27958).
T1 construct: purchased ProteinOne
Kind of experiment: biochemical.

T1 sequence (P27958 1027-1208, other chains not shown): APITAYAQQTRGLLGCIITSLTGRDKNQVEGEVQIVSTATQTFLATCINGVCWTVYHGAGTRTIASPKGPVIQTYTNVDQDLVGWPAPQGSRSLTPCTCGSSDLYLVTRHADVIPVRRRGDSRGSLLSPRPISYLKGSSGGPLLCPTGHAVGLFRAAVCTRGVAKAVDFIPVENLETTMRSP
Method: The HCV protease assay kits were purchased from ProteinOne and experiments were performed according to the manual provided.
Assay solution (100 μL) was added to each well by a multichannel pipette (Eppendorf Research) and the fluorescence signals were recorded immediately.
Fluorescence signals were recorded at 90 min. The experiment was repeated in triplicate. IC50 was calculated via nonlinear regression using the software package GraphPad Prism 5.

Regarding `CC(C)(C)OC(=O)CC[C@@H](CC(=O)C(=O)NCc1ccc(Cl)cc1)NC(=O)C[C@@H](NC(=O)C[C@@H](NC(=O)C[C@@H](NC(=O)CCC(=O)O)C1CCCCC1)C1CCCCC1)C1CCCCC1` [I^3-M^5-M^5-M^5-T^4], half-maximal inhibition (IC50) was put at 1000 nM.

The values above are taken from patent US20170088878A1, “METHOD FOR THE GENERATION OF CHEMICAL LIBRARIES” (ETH ZURICH, priority 2014, published 2017).
